This assay relates to 2B4/Mcl-1 cells apoptosis, absorbance viability. The experiment in a line: apoptosis induction in Mcl-1-dependent versus Bcl-2 cells, late-stage follow-up, selectivity assay for MCL1-BIM inhibitor project, cell-based, absorbance, 2B4/Mcl1 vs 2B4/Bcl-2 (AID 602164).
In the case of `OCCN1CCN(C(c2cccs2)c2ccc3cccnc3c2O)CC1` (stereo not drawn), the IC50 is 5.1 µM.

For `Oc1c(C(c2cccs2)N2CCCCC2)ccc2cccnc12` (stereo not drawn), the IC50 was 4.4 µM.

Turning to `CC(C)Oc1ccc(C(Nc2ccccn2)c2ccc3cccnc3c2O)cc1` (stereo not drawn), the IC50 is 2.3 µM.

`Oc1c(C(Nc2ccccn2)c2cccs2)ccc2cccnc12` (stereo not drawn): the IC50 was 3.1 µM.

With `Cc1ccnc(NC(c2cccs2)c2ccc3cccnc3c2O)c1` (stereo not drawn), the IC50 is 2.4 µM.

Regarding `CCN1CCN(C(c2cccs2)c2ccc3cccnc3c2O)CC1` (stereo not drawn), the IC50 is 3.8 µM.

In the case of `Oc1c(C(c2cccs2)N2CCN(c3ccccn3)CC2)ccc2cccnc12` (stereo not drawn), the IC50 was 3.7 µM.

For `CN1CCN(C(c2ccc(F)cc2)c2ccc3cccnc3c2O)CC1` (stereo not drawn), the IC50 was 4 µM.

The values are drawn from PubChem BioAssay AID602164 (The Scripps Research Institute Molecular Screening Center, 2012).
